# From ChEMBL document CHEMBL5233251, “Epoxide containing molecules: A good or a bad drug design approach” (Eur J Med Chem, 2020)
# pEC50, pIC50: −log10 of the molar value. Where a SMILES comes first, the peptide text is derived from it. [ ]: non-standard residue; d: D form. Aoe = N[C@@H](CCCCCC(=O)[C@@H]1CO1)C(=O)O
# Key:
# [1] = system: NCI-H522; test: Cytotoxicity against human NCI-H522 cells assessed as inhibition of cell growth incubated for 3 days; assay type: functional, cell-based; conditions: NCI-H522, 72 h
# [2] = Cytotoxicity against human RPMI-8226/Dox40 cells assessed as inhibition of cell growth incubated for 3 days; assay type: functional, cell-based; conditions: RPMI-8226, 72 h
# [3] = target: T1, Aromatase (Homo sapiens, UniProt P11511); test: Inhibition of aromatase in human MCF-7aro cells using [1beta-3H] androstenedione as substrate incubated for 1 hrs; assay type: cell-based
# T1 sequence (P11511 whole entry): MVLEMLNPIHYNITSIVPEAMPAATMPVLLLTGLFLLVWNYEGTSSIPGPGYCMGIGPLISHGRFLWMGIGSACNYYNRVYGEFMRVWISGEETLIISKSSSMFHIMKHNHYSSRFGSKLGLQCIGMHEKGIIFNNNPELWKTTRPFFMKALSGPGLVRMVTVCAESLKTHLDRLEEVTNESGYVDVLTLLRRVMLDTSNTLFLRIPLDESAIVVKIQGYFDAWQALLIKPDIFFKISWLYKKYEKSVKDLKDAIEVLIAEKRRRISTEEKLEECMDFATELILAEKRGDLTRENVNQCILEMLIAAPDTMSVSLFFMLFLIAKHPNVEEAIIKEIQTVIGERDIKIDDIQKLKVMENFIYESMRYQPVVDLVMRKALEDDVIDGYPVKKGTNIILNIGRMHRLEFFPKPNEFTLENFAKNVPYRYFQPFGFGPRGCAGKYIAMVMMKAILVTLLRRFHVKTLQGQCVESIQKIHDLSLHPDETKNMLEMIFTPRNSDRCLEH
# [4] = target: T1, Aromatase; test: Inhibition of aromatase in human MCF-7aro cells using [1beta-3H] androstenedione as substrate at 10 uM incubated for 1 hrs relative to control; assay type: cell-based
# [5] = target: T1, Aromatase; test: Inhibition of aromatase in disrupted human MCF-7aro cells using [1beta-3H] androstenedione as substrate incubated for 1 hrs in the presence of NADPH
# [6] = system: MCF7; test: Cytotoxicity against human MCF7 cells incubated for 24 hrs by MTT assay; assay type: functional, cell-based; conditions: MCF7, 24 h
# [7] = system: SF-295; test: Antiproliferative activity against human SF-295 cells assessed as inhibition of cell growth at 25 ug/ml incubated for 72 hrs by MTT assay relative to control; assay type: functional; set-up: scale not given: the % may be the effect or the level left; conditions: dose 25 µg/ml
# [8] = system: SF-295; test: Antiproliferative activity against human SF-295 cells assessed as inhibition of cell growth incubated for 72 hrs by MTT assay; assay type: functional, cell-based; conditions: SF-295, 72 h
# [9] = system: OVCAR-8; test: Antiproliferative activity against human OVCAR-8 cells assessed as inhibition of cell growth at 25 ug/ml incubated for 72 hrs by MTT assay relative to control; assay type: functional; set-up: scale not given: the % may be the effect or the level left; conditions: dose 25 µg/ml
# [10] = system: HCT-116; test: Antiproliferative activity against human HCT-116 cells assessed as inhibition of cell growth incubated for 72 hrs by MTT assay; assay type: functional, cell-based; conditions: HCT-116, 72 h
# [11] = system: HL-60; test: Antiproliferative activity against human HL-60 cells assessed as inhibition of cell growth incubated for 72 hrs by MTT assay; assay type: functional, cell-based; conditions: HL-60, 72 h
# [12] = system: OVCAR-8; test: Antiproliferative activity against human OVCAR-8 cells assessed as inhibition of cell growth incubated for 72 hrs by MTT assay; assay type: functional, cell-based; conditions: OVCAR-8, 72 h
# [13] = system: Leishmania donovani; test: Antileishmanial activity against Leishmania donovani promastigotes; assay type: functional, organism-based
# [14] = system: HCT-116; test: Antiproliferative activity against human HCT-116 cells assessed as inhibition of cell growth at 25 ug/ml incubated for 72 hrs by MTT assay relative to control; assay type: functional; set-up: scale not given: the % may be the effect or the level left; conditions: dose 25 µg/ml
# [15] = system: HeLa; test: Antiproliferative activity against human HeLa cells assessed as inhibition of cell proliferation incubated for 4 days by MTT assay; assay type: functional, cell-based; conditions: 96 h
# [16] = system: Malme-3M; test: Antiproliferative activity against human Malme-3M cells assessed as inhibition of cell proliferation incubated for 4 days by MTT assay; assay type: functional, cell-based; conditions: 96 h
# [17] = system: MCF7; test: Antiproliferative activity against human MCF7 cells assessed as inhibition of cell proliferation incubated for 4 days by MTT assay; assay type: functional, cell-based; conditions: MCF7, 96 h
# [18] = system: K562; test: Antiproliferative activity against human K562/C1000 cells assessed as inhibition of cell proliferation incubated for 4 days by MTT assay; assay type: functional, cell-based; conditions: K562, 96 h
# [19] = system: HT-29; test: Antiproliferative activity against human HT-29 cells assessed as inhibition of cell proliferation incubated for 4 days by MTT assay; assay type: functional, cell-based; conditions: HT-29, 96 h
# [20] = system: NCI-H1299; test: Antiproliferative activity against human NCI-H1299 cells assessed as inhibition of cell proliferation incubated for 4 days by MTT assay; assay type: functional, cell-based; conditions: NCI-H1299, 96 h
# [21] = system: A2780; test: Antiproliferative activity against human A2780 cells assessed as inhibition of cell proliferation incubated for 4 days by MTT assay; assay type: functional, cell-based; conditions: A2780, 96 h
# [22] = system: SW480; test: Induction of apoptosis in human SW480 cells assessed as accumulation of cells at 5 uM incubated for 24 hrs by Acridine orange/ethidium bromide staining based fluorescent microscopic analysis (reference value: 13.6%); assay type: functional
# [23] = Antitumor activity against IMC (unknown origin) cells xenografted in CDF1 mouse assessed as T/C ratio at 200 mg/kg, ip administered from day 1 to 5 and measured after 60 days; assay type: functional; conditions: time 60 day
# [24] = system: B16; test: Antitumor activity against mouse B16 cells implanted in BDF1 mouse assessed as T/C ratio at 25 mg/kg, ip administered from day 1 to 5 and measured after 60 days; assay type: functional; conditions: time 60 day
# [25] = system: Sarcoma-180; test: Antitumor activity against mouse Sarcoma-180 cells solid form implanted in ICR mouse assessed as T/C ratio at 12.5 mg/kg, ip administered from day 1 to 5 and measured after 60 days; assay type: functional; conditions: time 60 day
# [26] = system: Sarcoma-180; test: Antitumor activity against mouse Sarcoma-180 cells ascitic form implanted in ICR mouse assessed as T/C ratio at 100 mg/kg, ip administered from day 1 to 5 and measured after 60 days; assay type: functional; conditions: time 60 day
# [27] = system: Ehrlich; test: Antitumor activity against mouse Ehrlich cells implanted in ddY mouse assessed as T/C ratio at 70 mg/kg administered for 9 to 10 days; assay type: functional; conditions: time 9-10 day
# [28] = system: T47D; test: Antiproliferative activity against human T47D cells assessed as inhibition of cell proliferation incubated for 72 hrs by DAPI staining based flow cytometric analysis; assay type: functional
# [29] = Antiproliferative activity against human SH-EP cells assessed as inhibition of cell growth by tryphan blue exclusion assay; assay type: functional, cell-based
# [30] = system: BE(2)-C; test: Antiproliferative activity against human BE2C cells assessed as inhibition of cell growth by tryphan blue exclusion assay; assay type: functional, cell-based
# [31] = system: MIA PaCa-2; test: Cytotoxicity against human MIA PaCa-2 cells assessed as inhibition of cell proliferation incubated for 72 hrs by MTT assay; assay type: functional, cell-based
# [32] = system: HUVEC; test: (§1) Cytotoxicity against HUVEC cells assessed as inhibition of cell growth incubated for 72 hrs by MTT assay; assay type: toxicity, cell-based, Homo sapiens; conditions: huvec
# [33] = Cytotoxicity against human DeFew cells assessed as inhibition of cell proliferation incubated for 72 hrs by MTT assay; assay type: functional, cell-based
# [34] = as §1; assay type: toxicity, cell-based, Homo sapiens; conditions: human, HUVEC cells
# [35] = system: Calu-3; test: Antiproliferative activity against human Calu-3 cells assessed as reduction in cell viability incubated for 72 hrs by MTT assay; assay type: functional, cell-based; conditions: Calu-3, 72 h
# [36] = system: A549; test: Antiproliferative activity against human A549 cells assessed as reduction in cell viability incubated for 72 hrs by MTT assay; assay type: functional, cell-based; conditions: A549, 72 h
# [37] = system: NCI-H460; test: Antiproliferative activity against human NCI-H460 cells assessed as reduction in cell viability incubated for 72 hrs by MTT assay; assay type: functional, cell-based; conditions: NCI-H460, 72 h
# [38] = system: SK-MES-1; test: Antiproliferative activity against human SK-MES-1 cells assessed as reduction in cell viability incubated for 72 hrs by MTT assay; assay type: functional, cell-based; conditions: SK-MES-1, 72 h
# [39] = system: NCI-H1299; test: Antiproliferative activity against human NCI-H1299 cells assessed as reduction in cell viability incubated for 72 hrs by MTT assay; assay type: functional, cell-based; conditions: NCI-H1299, 72 h
# [40] = Cytotoxicity against human BEAS-2B assessed as reduction in cell viability incubated for 72 hrs by MTT assay; assay type: toxicity, cell-based; conditions: BEAS-2B cells
# [41] = system: DOHH-2; test: Antitumor activity against human DOHH-2 cells assessed as reduction in cell viability; assay type: functional, cell-based
# [42] = system: SUD4; test: Antitumor activity against human SU-DHL-4 cells assessed as reduction in cell viability; assay type: functional, cell-based
# [43] = system: RPMI-8226; test: Antitumor activity against human RPMI-8226 cells assessed as reduction in cell viability; assay type: functional, cell-based
# [44] = Antitumor activity against human INA-6 cells assessed as reduction in cell viability; assay type: functional, cell-based
# [45] = Induction of apoptosis in human multiple myeloma cell; assay type: functional, cell-based
structure (smiles),measurement,setting,value
C[C@]1([C@H]2Cc3ccc4c(c3O2)-n2cc(C(=O)O)c(=O)c3cc(F)c(N5CC[C@H](N)C5)c(c32)O4)CO1,pIC50,[1],7.15
same,pIC50,[2],7.30
C[C@]12CC[C@H]3[C@@H](CC[C@@]45O[C@@H]4CCC[C@]35C)[C@@H]1CCC2=O,pIC50,[3],5.07
same,inhibition at 10 µM,[4],52.2%
same,pIC50,[5],5.92
COc1cc(CNC(=O)CCCCC2OC2C(C)C)ccc1O (configuration not stated),pIC50,[6],4.30
C[C@]1([C@H]2CC=C(C=O)CC2)CO1,Activity,[7],96.32%
same,IC50,[8],1.03 µg/mL
same,Activity,[9],96.32%
same,IC50,[10],1.03 µg/mL
same,IC50,[11],1.03 µg/mL
same,IC50,[12],1.03 µg/mL
same,IC50,[13],3.87 µg/mL
same,Activity,[14],96.32%
CC1(C)NC(=O)[C@@H](CCCCCC(=O)[C@@H]2CO2)NC(=O)CC2CCCN2C(=O)[C@@H](Cc2ccccc2)NC1=O (some centres not stated),pIC50,[15],7.85
same,pIC50,[16],7.35
same,pIC50,[17],8.28
same,pIC50,[18],9.12
same,pIC50,[19],8.37
same,pIC50,[20],8.40
same,pIC50,[21],9.44
C[C@H]1C(=O)OC([C@@H](O)[C@](C)(O)[C@H]2[C@@H](O)C[C@H]3[C@@H]4C[C@H]5O[C@]56[C@@H](O)C=CC(=O)[C@]6(C)[C@H]4CC[C@]23C)[C@@H]1C (some centres not stated),Activity,[22],33.8%
CO[C@H]1[C@@H](OC)C[C@H](C)[C@@H](OC)C2=CC(=O)C(N3CCN(C)CC3)=C(NC(=O)/C(C)=C/C=C\[C@H](OC)[C@H](OC(N)=O)C3(C)CC3[C@@H]1C)C2=O (some centres not stated),T/C,[23],358%
same,T/C,[24],155%
same,T/C,[25],167%
same,T/C,[26],200%
same,T/C,[27],141%
C[C@@H]1NC(=O)[C@@H](C)NC(=O)[C@H](CCCCCC(=O)[C@@H]2CO2)NC(=O)[C@H]2CCCN2C1=O (cyclo(A[dP][Aoe][dA])),pIC50,[28],7.43
same,pIC50,[29],7.74
same,pIC50,[30],7.82
CC(C)=CCCC1(C)OC1C=O (stereo in doubt; 10a),pIC50,[31]; mia paca-2,4.05
same,pIC50,[32],3.70
same,pIC50,[33]; defew,4.35
CC(C)=CCCC1(C)OC1C=O (stereo in doubt; 10b),pIC50,"[31]; Homo sapiens, MIA PaCa-2, 72 h",4.03
same,IC50 at 72 h,[34],162 µM
same,pIC50,"[33]; Homo sapiens, DeFew, 72 h",4.05
CC(=O)O[C@H]1[C@H]2O[C@]23[C@@H]2CC[C@@H]4C[C@@H](O)CC[C@]4(C)[C@H]2CC[C@]3(C)[C@H]1c1ccc(=O)oc1 [CINOBUFAGIN],pIC50,[35],5.64
same,pIC50,[36],5.64
same,pIC50,[37],5.64
same,pIC50,[38],5.64
same,pIC50,[39],5.64
same,IC50 at 72 h,[40],22.3 µM
CC1=C(O)C(=O)c2c(ccc(O)c2O)C1=O [DIONCOQUINONE B],pEC50,[41],5.12
same,pEC50,[42],5.12
same,pEC50,[43],5.12
same,pEC50,[44],5.12
same,pEC50,[45],4.96
